Like-named read-outs stand apart in the source and are kept apart here.
Tests used:
PC-9 = assay: Cell proliferation assay, PC-9 cells (CellTiter-Glo, 72 hours); type: cell-based; conditions: Homo sapiens, PC-9, 72 h, PC9 cells, read-out: GI50 PC9
Method in brief: (§1)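 Ba/F3 cells (5000/well) and PC-9 cells (500/well, RPMI1640 with 10% FBS) were plated overnight and then dosed with a compound concentration series. Viable cells were read at day 0 (G0) and after treatment (G3). GI50 came from curve fits of G0-corrected proliferation relative to DMSO.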

[1] = biological target: T1, EGFR[T790M/C797S/d746-750] (Homo sapiens, UniProt P00533, C797S/DEL746-750/T790M); assay: Inhibition of EGFR[T790M/C797S/d746-750] biochemical enzymatic activity (HTRF); conditions: 1 mM ATP, 1 h at room temperature
T1 construct: purchased Carna Bio
Method in brief: (§2)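 Using a high ATP level (1 mM), wild-type and mutant EGFR enzymes were incubated 1 h at room temperature with inhibitor and 1 μM biotinylated TK substrate. Phosphorylation was quantified as the 665/615 nm HTRF ratio. IC50s were derived by logistic fitting.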

EGFR Exon19Del = biological target: T2, EGFR Exon19Del (Homo sapiens, UniProt P00533, DEL746-750); assay: Inhibition of EGFR Exon19Del biochemical enzymatic activity (HTRF); conditions: 1 mM ATP, 1 h at room temperature
T2 construct: purchased Carna Bio
Method in brief: as §2

EGFR wild type = biological target: T3, EGFR wild type (Homo sapiens, UniProt P00533); assay: Inhibition of EGFR wild type biochemical enzymatic activity (HTRF); conditions: EGFR wild type, 1 mM ATP, 1 h at room temperature
T3 construct: purchased Carna Bio
Method in brief: as §2

EGFR (C797S L858R) = biological target: T4, EGFR (C797S L858R) (Homo sapiens, UniProt P00533, C797S/L858R); assay: Inhibition of EGFR (C797S L858R) biochemical enzymatic activity (HTRF); conditions: EGFR (C797S L858R), 1 mM ATP, 1 h at room temperature
T4 construct: purchased signalchem
Method in brief: as §2

EGFR Exon19Del/T790M = biological target: T5, EGFR Exon19Del/T790M (Homo sapiens, UniProt P00533, DEL746-750/T790M); assay: Inhibition of EGFR Exon19Del/T790M biochemical enzymatic activity (HTRF); conditions: EGFR Exon19Del/T790M, 1 mM ATP, 1 h at room temperature
T5 construct: purchased Carna Bio
Method in brief: as §2

EGFR[T790M/C797S/L858R] = biological target: T6, EGFR[T790M/C797S/L858R] (Homo sapiens, UniProt P00533, C797S/L858R/T790M); assay: Inhibition of EGFR[T790M/C797S/L858R] biochemical enzymatic activity (HTRF); conditions: EGFR[T790M/C797S/L858R], 1 mM ATP, 1 h at room temperature
T6 construct: purchased Carna Bio
Method in brief: as §2

[2] = system: Ba/F3 cells expressing EGFR mutations; assay: Cell proliferation assay, Ba/F3 cells expressing EGFR mutations (CellTiter-Glo, 72 hours); type: cell-based; conditions: Mus musculus, BaF3, 72 h
Method in brief: as §1

EGFR L858R/T790M = biological target: T7, EGFR L858R/T790M (Homo sapiens, UniProt P00533, L858R/T790M); assay: Inhibition of EGFR L858R/T790M biochemical enzymatic activity (HTRF); conditions: EGFR L858R/T790M, 1 mM ATP, 1 h at room temperature
T7 construct: purchased Carna Bio
Method in brief: as §2

EGFR (d746-750 C797S) = biological target: T8, EGFR (d746-750 C797S) (Homo sapiens, UniProt P00533, C797S/DEL746-750); assay: Inhibition of EGFR (d746-750 C797S) biochemical enzymatic activity (HTRF); conditions: EGFR (d746-750 C797S), 1 mM ATP, 1 h at room temperature
T8 construct: purchased signalchem
Method in brief: as §2

EGFR L858R = biological target: T9, EGFR L858R (Homo sapiens, UniProt P00533, L858R); assay: Inhibition of EGFR L858R biochemical enzymatic activity (HTRF); conditions: 1 mM ATP, 1 h at room temperature
T9 construct: purchased Carna Bio
Method in brief: as §2

[3] = EGFR[T790M/C797S/d746-750], read-out: IC50 @T790M - C797S - Del19
[4] = EGFR Exon19Del, read-out: IC50 @Del19
[5] = read-out: IC50 @T790M- C797S - L858R
[6] = BaF3 cells, EGFR DEL19 - C797S, read-out: GI50 DEL19 - C797S/BaF3
[7] = BaF3 cells, EGFR DEL19 - T790-C797S, read-out: GI50 DEL19 - T790-C797S/BaF3
[8] = BaF3 cells, EGFR L858R - C797S, read-out: GI50 L858R - C797S/BaF3
[9] = BaF3 cells, EGFR L858R - T790-C797S, read-out: GI50 L858R - T790-C797S/BaF3
[10] = BaF3 cells, EGFR L858R - T790M, read-out: GI50 L858R - T790M/BaF3
[11] = BaF3 cells, EGFR L858R, read-out: GI50 L858R/BaF3
[12] = EGFR DEL19 - T790M, read-out: GI50 DEL19 - T790M

T3 sequence (P00533 25-1210): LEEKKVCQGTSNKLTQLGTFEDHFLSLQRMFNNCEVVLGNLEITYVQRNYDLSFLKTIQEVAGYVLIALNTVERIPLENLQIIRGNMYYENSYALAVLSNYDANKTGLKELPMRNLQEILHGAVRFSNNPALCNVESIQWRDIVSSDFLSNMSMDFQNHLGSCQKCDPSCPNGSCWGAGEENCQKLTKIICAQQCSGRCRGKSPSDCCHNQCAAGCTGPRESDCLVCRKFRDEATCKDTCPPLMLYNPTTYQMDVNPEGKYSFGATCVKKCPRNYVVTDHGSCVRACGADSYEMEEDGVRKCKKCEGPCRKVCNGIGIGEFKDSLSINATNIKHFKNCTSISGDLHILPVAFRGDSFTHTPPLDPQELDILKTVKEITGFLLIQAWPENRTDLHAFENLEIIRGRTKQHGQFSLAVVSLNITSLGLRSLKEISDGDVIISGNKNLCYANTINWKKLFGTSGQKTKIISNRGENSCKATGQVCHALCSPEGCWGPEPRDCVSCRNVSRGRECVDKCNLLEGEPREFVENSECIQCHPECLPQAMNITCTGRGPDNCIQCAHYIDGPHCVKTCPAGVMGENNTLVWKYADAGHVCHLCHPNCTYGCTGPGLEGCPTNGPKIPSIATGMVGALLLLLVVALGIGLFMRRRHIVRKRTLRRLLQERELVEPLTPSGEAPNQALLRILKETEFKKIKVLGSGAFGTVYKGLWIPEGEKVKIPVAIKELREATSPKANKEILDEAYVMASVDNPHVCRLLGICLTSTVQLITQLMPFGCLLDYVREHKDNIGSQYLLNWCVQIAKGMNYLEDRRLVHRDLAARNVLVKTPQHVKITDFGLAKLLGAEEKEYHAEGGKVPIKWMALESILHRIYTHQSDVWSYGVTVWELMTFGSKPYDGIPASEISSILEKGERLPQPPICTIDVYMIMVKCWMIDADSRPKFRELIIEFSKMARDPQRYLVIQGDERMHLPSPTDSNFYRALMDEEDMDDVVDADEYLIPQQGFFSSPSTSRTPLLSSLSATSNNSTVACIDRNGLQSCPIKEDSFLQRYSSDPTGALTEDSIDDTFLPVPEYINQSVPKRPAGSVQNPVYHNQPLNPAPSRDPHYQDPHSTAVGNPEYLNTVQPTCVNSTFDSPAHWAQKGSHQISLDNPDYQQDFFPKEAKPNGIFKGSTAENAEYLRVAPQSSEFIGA
T7 sequence (P00533 25-1210 T790M/L858R): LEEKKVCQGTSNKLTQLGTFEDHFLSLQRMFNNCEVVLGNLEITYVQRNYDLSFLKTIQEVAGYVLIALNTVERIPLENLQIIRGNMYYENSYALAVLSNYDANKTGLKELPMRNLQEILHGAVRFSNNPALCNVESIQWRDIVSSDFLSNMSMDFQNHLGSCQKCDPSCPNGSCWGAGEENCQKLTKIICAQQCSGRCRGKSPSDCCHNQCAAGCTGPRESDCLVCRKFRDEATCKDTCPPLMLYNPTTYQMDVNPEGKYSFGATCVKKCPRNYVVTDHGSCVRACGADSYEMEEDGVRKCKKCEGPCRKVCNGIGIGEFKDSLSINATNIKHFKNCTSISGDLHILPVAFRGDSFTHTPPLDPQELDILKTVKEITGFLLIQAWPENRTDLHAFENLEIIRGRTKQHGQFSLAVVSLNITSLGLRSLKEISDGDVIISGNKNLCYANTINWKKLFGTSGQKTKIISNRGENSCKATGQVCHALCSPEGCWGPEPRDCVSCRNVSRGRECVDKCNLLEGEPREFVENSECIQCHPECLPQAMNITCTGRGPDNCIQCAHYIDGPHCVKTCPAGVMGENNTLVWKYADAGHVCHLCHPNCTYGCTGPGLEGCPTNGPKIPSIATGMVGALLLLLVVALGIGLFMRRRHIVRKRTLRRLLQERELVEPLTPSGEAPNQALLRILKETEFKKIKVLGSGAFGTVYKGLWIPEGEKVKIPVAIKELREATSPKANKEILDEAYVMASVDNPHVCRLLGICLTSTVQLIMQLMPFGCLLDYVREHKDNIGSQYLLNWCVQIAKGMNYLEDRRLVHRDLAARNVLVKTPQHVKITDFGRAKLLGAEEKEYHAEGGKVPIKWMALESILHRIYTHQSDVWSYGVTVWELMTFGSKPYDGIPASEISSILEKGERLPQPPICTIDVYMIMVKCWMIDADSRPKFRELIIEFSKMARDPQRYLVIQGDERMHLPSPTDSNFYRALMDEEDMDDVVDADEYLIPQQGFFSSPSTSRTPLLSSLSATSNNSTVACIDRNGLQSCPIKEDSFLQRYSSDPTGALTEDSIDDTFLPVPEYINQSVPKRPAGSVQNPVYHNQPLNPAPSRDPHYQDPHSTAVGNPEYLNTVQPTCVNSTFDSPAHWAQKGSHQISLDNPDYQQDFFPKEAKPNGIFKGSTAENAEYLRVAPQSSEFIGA
T2 sequence (P00533 with tags, fused parts or gaps DEL746-750 limits assumed): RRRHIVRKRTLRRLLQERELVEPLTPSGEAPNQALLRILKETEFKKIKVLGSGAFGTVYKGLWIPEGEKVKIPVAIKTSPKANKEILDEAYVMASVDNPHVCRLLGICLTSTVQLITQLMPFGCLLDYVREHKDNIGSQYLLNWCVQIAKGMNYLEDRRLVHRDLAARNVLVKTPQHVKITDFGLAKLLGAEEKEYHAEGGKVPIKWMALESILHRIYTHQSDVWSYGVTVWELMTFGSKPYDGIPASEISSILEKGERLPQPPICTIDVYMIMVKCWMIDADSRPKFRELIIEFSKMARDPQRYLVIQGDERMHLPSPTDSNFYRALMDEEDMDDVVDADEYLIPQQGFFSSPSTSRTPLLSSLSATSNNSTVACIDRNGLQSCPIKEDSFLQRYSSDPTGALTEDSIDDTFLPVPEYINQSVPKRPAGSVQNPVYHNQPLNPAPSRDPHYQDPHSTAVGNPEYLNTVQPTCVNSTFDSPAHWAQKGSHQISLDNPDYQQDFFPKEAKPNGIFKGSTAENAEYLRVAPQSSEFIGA
T8 sequence (P00533 with tags, fused parts or gaps DEL746-750/C797S limits assumed): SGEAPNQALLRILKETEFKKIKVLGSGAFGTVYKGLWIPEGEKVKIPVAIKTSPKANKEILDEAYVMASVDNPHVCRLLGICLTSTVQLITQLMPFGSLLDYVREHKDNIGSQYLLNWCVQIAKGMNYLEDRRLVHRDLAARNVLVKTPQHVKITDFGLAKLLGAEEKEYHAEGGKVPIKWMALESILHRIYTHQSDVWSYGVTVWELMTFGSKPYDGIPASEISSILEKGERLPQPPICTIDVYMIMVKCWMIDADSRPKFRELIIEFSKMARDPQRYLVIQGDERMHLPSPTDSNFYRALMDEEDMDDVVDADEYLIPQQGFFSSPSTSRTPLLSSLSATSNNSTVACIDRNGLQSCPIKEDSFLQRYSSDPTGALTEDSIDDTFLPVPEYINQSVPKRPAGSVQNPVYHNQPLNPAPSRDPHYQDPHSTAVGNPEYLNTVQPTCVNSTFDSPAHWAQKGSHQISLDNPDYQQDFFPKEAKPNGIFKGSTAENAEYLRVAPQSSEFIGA
T5 sequence (P00533 with tags, fused parts or gaps DEL746-750/T790M limits assumed): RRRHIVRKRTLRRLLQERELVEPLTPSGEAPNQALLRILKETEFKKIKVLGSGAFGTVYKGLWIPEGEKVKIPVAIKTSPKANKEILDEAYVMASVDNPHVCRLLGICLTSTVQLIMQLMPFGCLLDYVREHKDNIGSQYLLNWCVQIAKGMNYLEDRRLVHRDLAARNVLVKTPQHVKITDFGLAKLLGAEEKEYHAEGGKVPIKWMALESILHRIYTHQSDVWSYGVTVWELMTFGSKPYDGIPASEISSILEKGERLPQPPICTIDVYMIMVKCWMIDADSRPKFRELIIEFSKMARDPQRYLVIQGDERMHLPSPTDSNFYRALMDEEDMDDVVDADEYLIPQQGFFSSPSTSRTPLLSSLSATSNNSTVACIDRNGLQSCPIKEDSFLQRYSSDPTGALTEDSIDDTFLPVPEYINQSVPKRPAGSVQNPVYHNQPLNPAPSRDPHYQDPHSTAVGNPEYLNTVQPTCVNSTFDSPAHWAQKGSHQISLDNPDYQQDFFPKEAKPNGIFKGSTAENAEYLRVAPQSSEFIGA
T1 sequence (P00533 with tags, fused parts or gaps DEL746-750/T790M/C797S limits assumed): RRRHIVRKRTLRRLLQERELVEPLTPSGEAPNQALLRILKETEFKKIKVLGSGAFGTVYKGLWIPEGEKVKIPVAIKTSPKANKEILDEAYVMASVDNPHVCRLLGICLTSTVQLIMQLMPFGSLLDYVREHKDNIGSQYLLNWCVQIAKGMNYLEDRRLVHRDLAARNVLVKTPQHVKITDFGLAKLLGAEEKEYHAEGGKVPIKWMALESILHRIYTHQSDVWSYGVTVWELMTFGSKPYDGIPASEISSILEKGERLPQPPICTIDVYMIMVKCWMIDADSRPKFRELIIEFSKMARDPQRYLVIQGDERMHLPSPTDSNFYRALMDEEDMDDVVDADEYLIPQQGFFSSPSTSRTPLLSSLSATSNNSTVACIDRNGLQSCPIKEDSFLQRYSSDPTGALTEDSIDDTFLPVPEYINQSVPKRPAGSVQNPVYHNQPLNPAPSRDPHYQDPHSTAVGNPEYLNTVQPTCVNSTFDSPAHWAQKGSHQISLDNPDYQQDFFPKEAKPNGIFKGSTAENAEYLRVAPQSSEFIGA

| GI50 (PC-9) [nM] | IC50 [1, 3] [nM] | IC50 (EGFR Exon19Del; [4]) [nM] | IC50 (EGFR wild type; read-out: IC50 @WT) [nM] | IC50 (EGFR (C797S L858R); read-out: IC50 @L858-C797S) [nM] | IC50 (EGFR Exon19Del/T790M; read-out: IC50 @Del19-T790M) [nM] | IC50 (EGFR[T790M/C797S/L858R]; [5]) [nM] | GI50 [2, 6] [nM] | GI50 [2, 7] [nM] | GI50 [2, 8] [nM] | GI50 [2, 9] [nM] | GI50 [2, 10] [nM] | GI50 [2, 11] [nM] | GI50 [2, 12] [nM] | IC50 (EGFR L858R/T790M; read-out: IC50 @L858R-T790M) [nM] | IC50 (EGFR (d746-750 C797S); read-out: IC50 @Del19-C797S) [nM] | IC50 (EGFR L858R; read-out: IC50 @L858R) [nM] | SMILES | other results |
| --- | --- | --- | --- | --- | --- | --- | --- | --- | --- | --- | --- | --- | --- | --- | --- | --- | --- | --- |
| 122 | 31 | 942 | > 5000 | > 5000 | 33 | 1990 | 86 | 32 | 2700 | 24 | 96 | 432 | 12 | > 5000 | > 500 | > 5000 | Cc1cc2cc(n1)-c1cnn(C)c1OCCCCCn1c(nc3ccc4c(c31)CN(C1COC1)CC4)NC2=O [Example B18, 5,30-dimethyl-17-(oxetan-3-yl)-7-oxa-4,5,13,17,24,26,31-heptaazahexacyclo[26.3.1.0^{2,6}.0^{13,25}.0^{14,23}.0^{15,20}]dotriaconta-1(31),2(6),3,14,20,22,24,28(32),29-nonaen-27-one] |  |
| 155 | 8.6 | 45 | > 5000 | 204 | 17 | 13 | 26 | 9 | 171 | 19 | 37 | 149 | 11 | 28 | 28 | 352 | Cc1cc2cc(n1)-c1cnn(C)c1OCCN1CC3CCC(CC3)(C1)n1c(nc3ccc(N4CC[C@@H](N(C)C)C4)cc31)NC2=O [Example B29] |  |
| 113 |  |  |  |  |  |  | 22 | 15 | 195 | 5.9 |  | 442 | 7.2 |  |  |  | Cc1cc2cc(n1)-c1cnn(C)c1OCCCCCn1c(nc3ccc4c(c31)CCN(CCN(C)C)C4)NC2=O [Example B23, 18-[2-(Dimethylamino)ethyl]-5,30-dimethyl-7-oxa-4,5,13,18,24,26,31-heptaazahexacyclo[26.3.1.0^{2,6}.0^{13,25}.0^{14,23}.0^{15,20}]dotriaconta-1(31),2(6),3,14,20,22,24,28(32),29-nonaen-27-one] | IC50 ([1]; IC50 @T790M - C797S - Del19, EGFR[T790M/C797S/d746-750]): 2.5 nM; IC50 (EGFR Exon19Del; IC50 @Del19, EGFR Exon19Del): 16 nM; IC50 (EGFR wild type; IC50 @WT): > 5000 nM; IC50 (EGFR (C797S L858R); IC50 @L858-C797S): 73 nM; IC50 (EGFR Exon19Del/T790M; IC50 @Del19-T790M): 3.8 nM; IC50 (EGFR[T790M/C797S/L858R]; IC50 @T790M- C797S - L858R): 5.4 nM; IC50 (EGFR L858R/T790M; IC50 @L858R-T790M): 12 nM; IC50 (EGFR (d746-750 C797S); IC50 @Del19-C797S): 6.5 nM; IC50 (EGFR L858R; IC50 @L858R): > 5000 nM |
